Assay results taken from patent publication US10238676B2, “Application of ginsenoside RG3 in preparing medicine for preventing and/or treating dementia, and medicine for treating dementia” (priority 2013, dated 2019).

How the values were obtained:
[1] = tested on: patients with mild or moderate Alzheimer's disease; experiment: Placebo-controlled clinical research, MMSE/CDR/ADL, mild or moderate Alzheimer's disease (Test Example 4); format: in vivo, human
Excerpt: 89 patients with mild or moderate Alzheimer's disease are divided into two groups randomly, one of which take ginsenoside Rg3, and the other placebos. There are 46 patients in the group taking Rg3, with 21 male and 25 female, aged from 58 to 87 (72.6±6.8), scoring from 10 to 24 (17.8±2.3) points in the mini-mental state examination (MMSE); there are 43 patients taking placebos, with 19 male and 24 female aged from 57 to 88 (71.8±8.2), scoring from 10 to 24 (18.2±2.7) points in MMSE. There are no obvious differences between the ginsenoside Rg3 group and the placebo group with respect to gender, age and MMSE scores. The patents in the group taking ginsenoside Rg3 use the ginsenoside Rg3 naristillae once a day for 12 continuous weeks, with 10 mg/ml for each time.
For the patients taking placebos, except that what is used for intranasal administration are placebos, the rest is conducted according to the same administration method as that adopted by those taking ginsenoside Rg3.
The ginsenoside Rg3 naristillae has a concentration of 10 mg/ml, and colors, characters, tastes and dosages of the placebos are the same as those of the ginsenoside Rg3 naristillae. The ginsenoside Rg3 naristillae and the placebos are applied once a day for 12 continuous weeks. Examination is conducted once every four weeks before and after medication, and the examination method is as follows:
(§1) (1) MMSE Screening of AD: examining patients' cognitive functions (orientation, memory, computational power, language competence, ability in applying visual-spatial segment etc.; (2) Examining patents' dementia degrees using the clinical dementia rating (CDR); (3) Examining patents' activities of daily living using the activity of daily living scale (ADL).
SPSS statistical software is adopted for examination results. T-test is adopted before and after treatment, and it is also adopted for the ginsenoside Rg3 naristillae group and the placebo control group. For scoring results of MMSE, CDR and ADL of patients with AD before treatment, see table 5

[2] = cited from earlier work
β-amyloid protein (Aβ) = experiment: Cerebrospinal fluid β-amyloid protein content (ELISA) of patients with Alzheimer's disease; format: in vivo, human; details: AD inpatients
Procedure: 2 ml of cerebrospinal fluid is collected by lumbar puncture, and is stored at −80° C., the β-amyloid protein (Aβ) content is determined by using enzyme-linked immunosorbent assay (ELISA). A revised Hasegawa dementia scale (HDS-R) is used to score, and the scores before and after treatment are compared, increasing in scores means validness, and unchanging or decreasing in scores means invalidness. The enumeration data adopts χ^2 test, the comparison of measurement data adopts t-test, all data is processed by adopting SPSS12.0 statistical software.

[3] = cited from earlier work; remark: listed apart in the source
[4] = tested on: patients with mild or moderate Alzheimer's disease; experiment: Self-controlled clinical research, MMSE/CDR/ADL, mild or moderate Alzheimer's disease (Test Example 5); format: in vivo, human
Procedure: 99 patients with mild or moderate Alzheimer's disease, among which 47 are male, 52 are female, all aged from 55 to 85 (73.5±7.6), MMSE score is […] (16.3±2.6) points.
Patients with AD all use the ginsenoside Rg3 naristillae once a day, 10 mg/ml each time, and keep using it for 12 weeks.
Examination is conducted once every four weeks before and after medication, and the medication method is as follows:
as §1, with “MMSE screening” for “MMSE Screening”, “visual-spatial” for “visual-spatial segment”, “dementia degree” for “dementia degrees”, “(3) examining” for “(3) Examining”
SPSS statistical software is adopted for examination results. T-test is adopted before and after treatment, and it is also adopted for the ginsenoside Rg3 naristillae group and the placebo control group.

[5] = Content of ginsenoside Rg3 in rat cerebrospinal fluid (BBB test, LC/MS/MS); format: in vivo, SD rats; details: rats, orally 10 mg/kg
Procedure: 1) Oral administration: an oral preparation of ginsenoside Rg3 is given to SD rats by lavage, the medicines of all high-dosage, medium-dosage and low-dosage groups are: 20, 10 and 5 mg/kg (the dosage above is pure dosage of Rg3)/bid, respectively, and each dosage group has 18 rats;
Rat cerebrospinal fluid is sucked after orally, topically and injection administering different preparations of ginsenoside Rg3 for 4 hours. […] Each rat is anesthetized with 10% chloral hydrate by intraperitoneal injection, the head of the rat is fixed by brain straight body positioning ear rods and front tooth rods, the occipital region is sheared and sterilized, and a longitudinal incision (about 2 cm) is cut along the posterior midline, and the muscles at the dorsal part of napex are bluntly separated with a pair of scissors. […]
The medicine concentrations in the rat cerebrospinal fluid are determined by LC/MS/MS methods. […]

[6] = 46 AD patients, Rg3 naristillae 10 mg/ml intranasal once a day
[7] = 99 AD patients, Rg3 naristillae 10 mg/ml once a day
[8] = Test Example 5, versus before treatment

Structure (SMILES): CC(C)=CCC[C@](C)(O)[C@H]1CC[C@]2(C)[C@@H]1[C@H](O)C[C@@H]1[C@@]3(C)CC[C@H](O[C@@H]4O[C@H](CO)[C@@H](O)[C@H](O)[C@H]4O[C@@H]4O[C@H](CO)[C@@H](O)[C@H](O)[C@H]4O)C(C)(C)[C@@H]3CC[C@]12C [Ginsenoside Rg3, 20(R)-ginsenoside Rg3]
- ADL score before treatment ([1]; 46 AD patients, baseline): 47.2 ± 7.9 points
- CDR score before treatment ([1]; 46 AD patients, baseline): 1.9 ± 0.3 points
- MMSE score before treatment ([1]; 46 AD patients, baseline): 17.8 ± 2.3 points
- ADL score after treatment for 12 weeks [1, 6]: 40.5 ± 7.6 points
- CDR score after treatment for 12 weeks [1, 6]: 1.2 ± 0.2 points
- MMSE score after treatment for 12 weeks ([1]; 46 AD patients, Rg3 naristillae (embodiment 29) 10 mg/ml intranasal once a day): 24.1 ± 2.0 points
- decrease of ADL score after treatment compared with before treatment ([1]; Test Example 4, Rg3 naristillae, 12 weeks): 7.1 points
- lipid solubility and water solubility [2]: relatively poor
- Aβ content in cerebrospinal fluid, post treatment (β-amyloid protein (Aβ); n = 18, Rg3 oral liquid 10 mg/d or donepezil 5 mg/d orally, 12 weeks): 3.8 ± 1.5
- Aβ content in cerebrospinal fluid, before treatment (β-amyloid protein (Aβ); n = 18 per group, baseline): 5.9 ± 2.6
- medicine in native form not absorbed and excreted through feces ([3]; animal pharmacokinetic experiments, oral preparations): about 80%
- oral absorption percentage ([3]; oral): about 10.28%
- ADL score before treatment ([4]; 99 AD patients, baseline): 49.6 ± 8.2 points
- CDR score before treatment ([4]; 99 AD patients, baseline): 2.1 ± 0.3 points
- MMSE score before treatment ([4]; 99 AD patients, baseline): 16.3 ± 2.6 points
- ADL score, treatment for 4 weeks [4, 7]: 48.2 ± 7.9 points
- ADL score, treatment for 12 weeks [4, 7]: 42.5 ± 7.3 points
- CDR score, treatment for 4 weeks [4, 7]: 1.9 ± 0.2 points
- CDR score, treatment for 12 weeks [4, 7]: 1.5 ± 0.2 points
- MMSE score, treatment for 4 weeks [4, 7]: 17.1 ± 1.9 points
- MMSE score, treatment for 12 weeks [4, 7]: 19.8 ± 1.7 points
- decrease of ADL score after treatment [4, 8]: 7.1 points
- decrease of CDR score after treatment for 12 weeks [4, 8]: 0.6 points
- increase of MMSE score after treatment for 12 weeks [4, 8]: 3.5 points
- Ginsenoside Rg3 in cerebrospinal fluid sample (FIG. 2C chromatogram) [5]: 10.8 ng/g
